Read-outs that look alike come from different tables or passages of the source.
How the values were obtained:
[1] = test system: patients with hyperuricemia and gout; assay: Phase 3 febuxostat trial: gout flares, first 8 weeks; format: in vivo, human; details: first 8 weeks with gout flare prophylaxis
Excerpt: (§1) Further comparisons can be made with the primary branded oral uric acid lowering medication, febuxostat. In a phase 3, randomized, double-blind, multi-center trial, the safety and efficacy of febuxostat was studied over 52 weeks (Michael A. Becker, M. D., H. Ralph Schumacher, Jr., M. D., Robert L. Wortmann, M. D., Patricia A. MacDonald, B. S. N., N. P., Denise Eustace, B. A., William A. Palo, M. S., Janet Streit, M. S., and Nancy Joseph-Ridge, M. D. Febuxostat Compared with Allopurinol in Patients with Hyperuricemia and Gout. N Engl J Med 2005; 353:2450-2461Dec. 8, 2005). The comparison period for this analysis included only the first 8 weeks of that study, when gout flare prophylaxis (naproxen or colchicine) was administered. Data points were identified using a graph digitizer for FIG. 1 of the above reference. At a dose of 80 mg/day, 55 out of 255 subjects required treatment for at least one gout flare. This would be the equivalent to a flare frequency of at least 0.22 flares per patient month, and possibly more. At a dose of 120 mg/day, 90 out of 250 subjects required treatment for at least one gout flare, equating to at least a flare frequency of 0.36 flares per patient month, and possibly more.

serum uric acid (sUA) [2] = assay: Phase 3 febuxostat trial: AUC of mean sUA levels over time; format: in vivo, human; details: data points from graph digitizer
Excerpt: as §1, with “The comparison period for this analysis included only the first 8 weeks of that study, when gout flare prophylaxis (naproxen or colchicine) was administered.” left out

[3] = Combination assessment of flare frequency and AUC of mean sUA; format: in vivo, human
Experimental: Anti-drug antibodies (ADAs) can be a complication with treatment with soluble therapeutic proteins, such as the possibility of reduced efficacy. In addition, with treatment of subjects with conditions associate with gout, gout flares can increase when efficacy is increased. […] Specifically, a combination assessment of glare frequency as well as the area under the curve of mean sUA (serum uric acid) levels over time was performed. The finding of both improved efficacy and reduced gout flares was surprising with the SEL-212 study drug and anti-inflammatory treatment.
The tabulated data outlining the comparison in flare frequency between the different medications alongside their efficacy in reducing serum uric acid (sUA) is compiled in Table 4.
In addition, a combination assessment of glare frequency as well as the area under the cruve of mean sUA levels over time show both improved efficacy and reduced gout flares. […] Here, with the SEL-212 study drug and anti-inflammatory treatment, both efficacy and gout flare reduction can be achieved.

[4] = test system: patients with hyperuricemia and gout; details: first 8 weeks, cited from earlier work
serum uric acid (sUA) [5] = assay: Phase 3 pegloticase trials: AUC of mean sUA levels over time; format: in vivo, human; parameters: AUC of mean sUA levels, responders / AUC of mean sUA levels, non-responders: unit not given beside the values; details: for Area Under Curve of Mean sUA Levels Over Time Up to 20 Weeks: combined weighted average for responders and non-responders, digitized, extrapolated to 20 weeks
Experimental: For comparison, the Phase 3 pegloticase trials (John S. Sundy, MD, PhD; Herbert S. B. Baraf, MD; Robert A. Yood, MD; et al. Efficacy and Tolerability of Pegloticase for the Treatment of Chronic Gout in Patients Refractory to Conventional Treatment: Two Randomized Controlled Trials. JAMA. 2011; 306(7):711-720) were examined to determine the number of flares per month and the area under the curve (AUC) of mean serum uric acid (sUA) levels over time (up to 20 weeks). Subjects were given 0.6 mg of colchicine once or twice daily (or a nonsteroidal anti-inflammatory drug) one week before first infusion, which continued throughout the study. The study also included prophylaxis against infusion related reactions (IRs) before each infusion. The subjects were administered oral fexofenadine (60 mg) the evening before and again immediately before, the infusion, as well as acetaminophen 1000 mg) and IV hydrocortisone (200 mg) immediately before the infusion. Data points were obtained from Table 2, which presents the biweekly/monthly flare per patient month. Data points were also identified using a graph digitizer for FIG. 2 of the aforementioned reference. The data was extrapolated to 20 weeks. The AUC of mean sUA levels over time (up to 20 weeks) and the flares per patient month were calculated using the combined weighted average for responders and non-responders for sUA AUC. […] Similar calculations were performed to obtain the monthly data.

uric acid = details: cited from earlier work
ADAs = details: all KRYSTEXXA-treated subjects; cited from earlier work
[6] = test system: patients with chronic gout refractory to conventional treatment; details: cited from earlier work
[7] = monthly dosing, four weeks after first dose

Cc1nc(-c2ccc(OCC(C)C)c(C#N)c2)sc1C(=O)O [Febuxostat, febuxostat]
Flares per patient month ([1]; Febuxostat 80 mg/day): 0.22 flares per patient month | Flares per patient month ([1]; Febuxostat 80 mg/day, listed as febuxostat): at least 0.22 flares per patient month | Flares per patient month ([1]; Febuxostat 120 mg/day): 0.36 flares per patient month | Flares per patient month ([1]; Febuxostat 120 mg/day, listed as febuxostat): ≥ 0.36 flares per patient month | Area Under Curve of Mean sUA Levels Over Time Up to 20 Weeks (serum uric acid (sUA) [2]; Febuxostat 80 mg/day): 108.3 | Area Under Curve of Mean sUA Levels Over Time Up to 20 Weeks (serum uric acid (sUA) [2]; Febuxostat 120 mg/day): 93.4 | Flares per patient month * AUC ([3]; Febuxostat 80 mg/day): 23.83 | Flares per patient month * AUC ([3]; Febuxostat 120 mg/day): 33.62 | subjects that required treatment for at least one gout flare ([4]; Febuxostat 80 mg/day): 55 out of 255 | subjects that required treatment for at least one gout flare ([4]; Febuxostat 120 mg/day): 90 out of 250

Pegloticase
AUC of mean sUA levels, non-responders (serum uric acid (sUA) [5]; Pegloticase biweekly group, non-responders, cut to 20 weeks): 102.0 | AUC of mean sUA levels, responders (serum uric acid (sUA) [5]; Pegloticase biweekly group, responders): 12.3 | Area Under Curve of Mean sUA Levels Over Time Up to 20 Weeks (serum uric acid (sUA) [5]; Pegloticase biweekly): 64.0 | Area Under Curve of Mean sUA Levels Over Time Up to 20 Weeks (serum uric acid (sUA) [5]; Pegloticase monthly): 94.4 | Flares per patient month * AUC ([3]; Pegloticase biweekly): 33.28 | Flares per patient month * AUC ([3]; Pegloticase monthly): 66.05 | non-responders, share of subjects (uric acid; monthly dosing cohorts): 65% | subjects classified as responders (uric acid below 6 mg/dl for 80% of the time at months three and six) (uric acid; monthly dosing cohorts): 35% | mean uric acid levels at four weeks, non-responders (uric acid; [7]): above 6 mg/dl | mean uric acid levels at four weeks, responders (uric acid; [7]): above 4 mg/dl | treated subjects that developed ADAs (ADAs): 89% | Flares per patient month ([6]; Pegloticase biweekly): 0.52 flares per patient month | Flares per patient month ([6]; Pegloticase monthly): 0.70 flares per patient month
